Bridges are numbered along the chain shown (N, C = ends). Where no end group is shown, it is not given here. [ ]: non-standard residue; d: D form. Pen = CC(C)(S)[C@H](N)C(=O)O

The experiment has as its system adipose tissues from male Zucker fatty (fa/fa) rats. Briefly: In vitro inhibition of lipogenesis in isolated adipose tissue. The experiment is classed as cell-based, rat. The conditions noted are these: for In vitro lipogenesis % of control / In vitro lipogenesis Activity / In vitro lipogenesis, rate of [C14]-glucose incorporation into [C14]-lipid: peptide 0.3 μM, insulin 0.1 mU/ml; for In vitro lipogenesis, rate of [C14]-glucose incorporation into [C14]-lipid: KRB buffer; for activity according to the in vivo and in vitro assay results (in words): structure-activity summary. The procedure:
The rate of the incorporation of exogenous [C^14]-glucose into total lipid in adipose tissue was measured as the index of anti-lipogenic activity of hGH 177-191.
Adipose tissues were sliced into segments of approximately 200 mg each and then placed in Krebs-Ringer bicarbonate (KRB) buffer (pH 7.4) containing 2% defatted BSA, and glucose (0.1 mg/ml) and gassed with 95% O2-5% CO2 at 37° C. After 1 hr preincubation, the tissues were transferred to another 2 ml of fresh media containing [C^14]-glucose (final specific activity 0.05 μCi/μmol), and 0.3 μM of hGH 177-191 in the presence or absence of insulin (0.1 mU/ml) for a further 90 min incubation (conditions as above). Then the tissues were removed, washed thoroughly with KRB buffer and lipid was extracted with 5 ml of chlorofom/methanol (2:1, v/v) The extraction solution was washed with 2 ml of MeOH-H2O solution containing 0.1% MgCl2. A 2.5 ml aliquot of the washed extraction solution was taken and transferred to scintillation vials. The [C^14] radioactivity was measured with a liquid scintillation counter. The rates of total lipid synthesis were expressed as μmol [C^14]-glucose incorporated into lipid/g tissue/hr.

For “9502 (LRIVQ[Pen]RSVEGS[Pen]GF; disulfide 6-13; listed as Homo sapiens) [Compound 9502]”, the “In vitro lipogenesis % of control” value is reported as 72 % of control; the “In vitro lipogenesis Activity” value is on record as “Active”; the “In vitro lipogenesis, rate of [C14]-glucose incorporation into [C14]-lipid” value (“In vitro lipogenesis, rate” for short) came to 174 ± 5 nmol/g tissue/hr.

In the case of “9601 (LRIVQCRSVEGSCGA; disulfide 6-13; listed as Homo sapiens) [Compound 9601]”, the “In vitro lipogenesis % of control” value is given as 76 % of control; the “In vitro lipogenesis Activity” value is “Active”; the “In vitro lipogenesis, rate” value amounted to 185 ± 24 nmol/g tissue/hr.

As to “9602 (LRIVQCRSVEGSCAF; disulfide 6-13; listed as Homo sapiens) [Compound 9602]”, the “In vitro lipogenesis % of control” value is 73 % of control; the “In vitro lipogenesis Activity” value is recorded as “Active”; the “In vitro lipogenesis, rate” value was 176 ± 27 nmol/g tissue/hr.

For “9603 (LAIVQCRSVEGSCGF; listed as Homo sapiens) [Compound 9603]”, the “In vitro lipogenesis % of control” value is reported as 93 % of control; the “In vitro lipogenesis Activity” value is “Inactive”; the “In vitro lipogenesis, rate” value is given as 225 ± 18 nmol/g tissue/hr.

With “9604 (YLRIVQCRSVEGSCGF; disulfide 7-14; listed as Homo sapiens) [Compound 9604]”, the “In vitro lipogenesis % of control” value was 49 % of control; the “In vitro lipogenesis Activity” value is listed as “Active”; the “In vitro lipogenesis, rate” value is 118 ± 16 nmol/g tissue/hr.

Regarding “9605 (KLRIVQCRSVEGSCGF; disulfide 7-14; listed as Homo sapiens) [Compound 9605]”, the “In vitro lipogenesis % of control” value was 76 % of control; the “In vitro lipogenesis Activity” value was “Active”; the “In vitro lipogenesis, rate” value is 184 ± 41 nmol/g tissue/hr.

Take “9606 (LKIVQCRSVEGSCGF; disulfide 6-13; listed as Homo sapiens) [Compound 9606]”: the “In vitro lipogenesis % of control” value is recorded as 77 % of control; the “In vitro lipogenesis Activity” value is listed as “Active”; the “In vitro lipogenesis, rate” value is 187 ± 19 nmol/g tissue/hr.

On to “9606 (LKIVQCRSVEGSCGF; disulfide 6-13; listed as Homo sapiens) [compound 9606]”, for which the “activity according to the in vivo and in vitro assay results (in words)” value (shortened to “activity according”) is reported as “retains activity”.

In the case of “9607 (ARIVQCRSVEGSCGF; disulfide 6-13; listed as Homo sapiens) [Compound 9607]”, the “In vitro lipogenesis % of control” value is recorded as 82 % of control; the “In vitro lipogenesis Activity” value is recorded as “Active”; the “In vitro lipogenesis, rate” value was found to be 198 ± 12 nmol/g tissue/hr.

As for “9608 (LRAVQCRSVEGSCGF; disulfide 6-13; listed as Homo sapiens) [Compound 9608]”, the “In vitro lipogenesis % of control” value is on record as 71 % of control; the “In vitro lipogenesis Activity” value was “Active”; the “In vitro lipogenesis, rate” value is 173 ± 12 nmol/g tissue/hr.

Regarding “9609 (LRIAQCRSVEGSCGF; disulfide 6-13; listed as Homo sapiens) [Compound 9609]”, the “In vitro lipogenesis % of control” value is 78 % of control; the “In vitro lipogenesis Activity” value is “Active”; the “In vitro lipogenesis, rate” value came to 188 ± 13 nmol/g tissue/hr.

For “9610 (LRIVACRSVEGSCGF; disulfide 6-13; listed as Homo sapiens) [Compound 9610]”, the “In vitro lipogenesis % of control” value is recorded as 79 % of control; the “In vitro lipogenesis Activity” value is “Active”; the “In vitro lipogenesis, rate” value is given as 192 ± 14 nmol/g tissue/hr.

As for “9611 (LRIVQARSVEGSCGF; listed as Homo sapiens) [Compound 9611]”, the “In vitro lipogenesis % of control” value is on record as 93 % of control; the “In vitro lipogenesis Activity” value is listed as “Inactive”; the “In vitro lipogenesis, rate” value amounted to 224 ± 19 nmol/g tissue/hr.

On to “9611 (LRIVQARSVEGSCGF; listed as Homo sapiens) [compound 9611]”, for which the “activity according” value was “inactive”.

Regarding “9612 (LRIVQCRAVEGSCGF; disulfide 6-13; listed as Homo sapiens) [Compound 9612]”, the “In vitro lipogenesis % of control” value is recorded as 79 % of control; the “In vitro lipogenesis Activity” value was “Active”; the “In vitro lipogenesis, rate” value came out at 191 ± 20 nmol/g tissue/hr.

“9613 (LRIVQCRSAEGSCGF; disulfide 6-13; listed as Homo sapiens) [Compound 9613]”: the “In vitro lipogenesis % of control” value is on record as 78 % of control; the “In vitro lipogenesis Activity” value is reported as “Active”; the “In vitro lipogenesis, rate” value was determined as 189 ± 16 nmol/g tissue/hr.

For the substance “9614 (LRIVQCRSVAGSCGF; listed as Homo sapiens) [Compound 9614]”, the “In vitro lipogenesis % of control” value is reported as 96 % of control; the “In vitro lipogenesis Activity” value is given as “Inactive”; the “In vitro lipogenesis, rate” value worked out at 233 ± 13 nmol/g tissue/hr.

With “9615 (LRIVQCRSVEASCGF; disulfide 6-13; listed as Homo sapiens) [Compound 9615]”, the “In vitro lipogenesis % of control” value is 76 % of control; the “In vitro lipogenesis Activity” value is given as “Active”; the “In vitro lipogenesis, rate” value was found to be 183 ± 17 nmol/g tissue/hr.

With “9616 (LRIVQCRSVEGACGF; disulfide 6-13; listed as Homo sapiens) [Compound 9616]”, the “In vitro lipogenesis % of control” value was 84 % of control; the “In vitro lipogenesis Activity” value is “Active”; the “In vitro lipogenesis, rate” value stood at 203 ± 19 nmol/g tissue/hr.

Turning to “9617 (LRIVQCRSVEGSAGF; listed as Homo sapiens) [Compound 9617]”, the “In vitro lipogenesis % of control” value is recorded as 92 % of control; the “In vitro lipogenesis Activity” value is given as “Inactive”; the “In vitro lipogenesis, rate” value was 223 ± 16 nmol/g tissue/hr.

Take “9617 (LRIVQCRSVEGSAGF; listed as Homo sapiens) [compound 9617]”: the “activity according” value was “inactive”.

Consider “9618 (KKLRIVQCRSVEGSCGF; disulfide 8-15; listed as Homo sapiens) [Compound 9618]”, for which the “In vitro lipogenesis % of control” value is on record as 77 % of control; the “In vitro lipogenesis Activity” value is “Active”; the “In vitro lipogenesis, rate” value was 188 ± 19 nmol/g tissue/hr.

For the origin of these results see US6737407B1, “Treatment of obesity” (Metabolic Pharmaceuticals, Ltd., priority 1997, dated 2004).
